# In ChEMBL document CHEMBL1145207, “Discovery of novel quinoline-based estrogen receptor ligands using peptide interaction profiling” (J Med Chem, 2005):
# Columns and labels:
# [1] = target: T1, Estrogen receptor beta (Homo sapiens, UniProt Q92731)
# [2] = target: T2, Estrogen receptor (Homo sapiens, UniProt P03372)
# T2 sequence (P03372 whole entry): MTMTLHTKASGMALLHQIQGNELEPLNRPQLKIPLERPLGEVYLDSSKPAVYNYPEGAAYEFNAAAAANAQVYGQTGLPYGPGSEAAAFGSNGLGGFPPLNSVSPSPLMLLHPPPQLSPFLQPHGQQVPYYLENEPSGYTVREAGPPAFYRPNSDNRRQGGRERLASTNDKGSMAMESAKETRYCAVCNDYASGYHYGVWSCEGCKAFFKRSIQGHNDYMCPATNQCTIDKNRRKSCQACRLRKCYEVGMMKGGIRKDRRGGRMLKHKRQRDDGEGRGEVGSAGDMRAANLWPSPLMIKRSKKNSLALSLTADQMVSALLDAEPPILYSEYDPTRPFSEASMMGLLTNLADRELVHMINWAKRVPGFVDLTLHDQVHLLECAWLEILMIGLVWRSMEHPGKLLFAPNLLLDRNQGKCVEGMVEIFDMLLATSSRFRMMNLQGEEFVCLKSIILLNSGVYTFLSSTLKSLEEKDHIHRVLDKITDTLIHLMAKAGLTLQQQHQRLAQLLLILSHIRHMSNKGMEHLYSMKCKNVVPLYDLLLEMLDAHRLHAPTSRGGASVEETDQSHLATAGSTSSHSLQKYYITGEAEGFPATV
# Description: Binding affinity for human estrogen receptor alpha
# [3] = target: T3, Estrogen receptor (Homo sapiens) (UniProt P03372)
# T3 sequence (whole entry): T2 sequence (P03372 whole entry)
# Description: Mean fluorescence intensity corrected to basal for GW-5638 selective peptide binding to human estrogen receptor alpha
# [4] = target: Estrogen receptor (Homo sapiens, UniProt Q92731+P03372); details: ishikawa
# [5] = target: T1, Estrogen receptor beta; test: Binding affinity for human estrogen receptor beta
# T1 sequence (Q92731 whole entry): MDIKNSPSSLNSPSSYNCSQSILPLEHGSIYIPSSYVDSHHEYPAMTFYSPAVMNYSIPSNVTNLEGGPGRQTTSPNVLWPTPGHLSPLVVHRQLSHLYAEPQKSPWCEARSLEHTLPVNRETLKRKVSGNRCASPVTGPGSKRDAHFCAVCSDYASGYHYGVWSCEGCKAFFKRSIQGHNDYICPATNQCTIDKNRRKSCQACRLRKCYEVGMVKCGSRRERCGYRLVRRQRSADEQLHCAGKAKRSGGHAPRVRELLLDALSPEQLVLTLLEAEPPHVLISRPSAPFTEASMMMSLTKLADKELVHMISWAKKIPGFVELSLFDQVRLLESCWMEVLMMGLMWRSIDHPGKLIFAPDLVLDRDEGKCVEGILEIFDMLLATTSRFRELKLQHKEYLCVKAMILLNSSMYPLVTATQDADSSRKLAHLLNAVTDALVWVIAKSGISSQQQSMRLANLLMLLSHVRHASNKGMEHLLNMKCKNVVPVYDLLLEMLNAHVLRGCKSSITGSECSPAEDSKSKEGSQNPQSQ
SMILES,Ki [1],Ki [2],MFI [3],Log IC50 [4],Ki [5]
CCc1nc2cc(O)ccc2c(Oc2ccc(OCCN(C)C)cc2)c1-c1ccccc1,10 nM,7.94 nM,0,-8.5,–
CCc1nc2cc(O)ccc2c(Oc2ccc(/C=C/C(=O)O)cc2)c1-c1cccc(C(F)(F)F)c1,251 nM,100 nM,1590,-8.1,–
O=C(O)/C=C/c1ccc(Oc2c(-c3ccccc3)c(-c3ccccc3)nc3cc(O)ccc23)cc1,631 nM,3160 nM,–,-5.6,–
CCc1nc2cc(O)ccc2c(Oc2cccc(/C=C/C(=O)O)c2)c1-c1ccccc1,–,1580 nM,–,–,1580 nM
CCc1nc2cc(O)ccc2c(Oc2ccc(/C=C/C(=O)N3CCCCC3)cc2)c1-c1ccccc1,25.1 nM,25.1 nM,390,-8.4,–
CCc1nc2cc(O)ccc2c(Oc2ccc(/C=C/C(=O)O)cc2)c1-c1ccccc1,–,–,1380,–,–
CCc1nc2cc(O)ccc2c(Oc2ccc(/C=C/C(=O)N(C)C)cc2)c1-c1ccccc1,20 nM,10 nM,350,-8.4,–
CCc1nc2cc(O)ccc2c(Oc2ccc(/C=C/C(N)=O)cc2)c1-c1ccccc1,25.1 nM,15.8 nM,540,-7.1,–
CCc1nc2cc(O)ccc2c(Oc2ccc(/C=C/C(=O)NC(C)C)cc2)c1-c1ccccc1,15.8 nM,10 nM,710,-7.7,–
CC/C(=C(\c1ccc(O)cc1)c1ccc(/C=C/C(=O)O)cc1)c1ccccc1,–,–,1320,–,–
